In patent publication US20080299131A1, “Anti-Viral Compositions” (priority 2004, published 2008):
“Also recorded” adds a separate entry of the source.

Experiments:
[1] = system: EEV; assay type: cell-based, Vaccinia virus strain WR
[2] = Tolerability of polyanions administered to mice; details: for adverse effects after intraperitoneal injection: unpublished data; for weight loss or illness after intranasal administration: up to 2 mg/mouse intranasally
[3] = system: VACV strain WR-induced actin tails; assay type: cell-based, Vaccinia virus strain WR
[4] = system: VACV strain WR; assay type: in vivo, mice; details: 3×10^3 pfu, polyanion intranasally on one and three days post-infection
[5] = system: VACV harvested from supernatant of infected cells (predominantly EEV); assay type: cell-based, Vaccinia virus strain WR
[6] = system: VACV strain WR; assay type: in vivo, mice; details: 2 mg polyanion intranasally 2 days post-infection; for benefit with polyanion in mice that received human IgG: Hu anti-VV Ab 500 μg; for weight loss after infection, polyanion alone: non-immune IgG, 1×10^4 pfu
[7] = system: VACV (most likely IMV form); details: DS per se at 80 μg/ml; cited from earlier work
[8] = system: VACV strain WR; parameters: species or system mice; details: mouse, in vivo
[9] = system: EEV; assay type: cell-based, Vaccinia virus
[10] = system: EEV membrane; parameters: species or system Vaccinia virus strain WR
[11] = system: VACV strain WR; assay type: cell-based, Vaccinia virus strain WR
[12] = system: CEV outer membrane; assay type: cell-based, Vaccinia virus strain WR

| Substance | relative effectiveness at rendering EEV sensitive to anti-IMV antibody [1] | adverse effects after intraperitoneal injection [2] | actin tails formed in cells that made actin tails [3] | cells found to make actin tails [3] [%] | virus infectivity in the supernatant [1] | benefit in vivo at lower virus challenge [4] | infectivity of virus in the supernatant of VACV-infected cells [5] | neutralizing activity of both antisera [5] | weight loss or illness after intranasal administration [2] | protection with polyanion in mice passively immunised with rabbit anti-IMV IgG [6] | benefit with polyanion in mice that received human IgG [6] | weight loss after infection, polyanion alone [6] | also measured |
| --- | --- | --- | --- | --- | --- | --- | --- | --- | --- | --- | --- | --- | --- |
| dextran sulphate [DS-HMW] | more potent than HP and DS; also recorded: more effective than DS with lower molecular weight | did not affect the mice adversely | – | – | – | – | – | – | – | – | – | – | body weight reduction ([2]; 2 mg/mouse intranasally, after 2 days): 15%; weight loss or illness after intranasal administration ([2]; listed as high MW DS): increased respiratory effort, followed by breathing difficulty |
| dextran sulphate [DS] | – | – | significantly fewer actin tails were formed | 15 | abolished virus infectivity | confirmed | did not reduce the infectivity | 56-63% | did not cause weight loss or illness | potentiated the therapeutic effect of this Ab | less effective | slightly less weight loss | inhibition of VACV [7]: only partially inhibit VACV |
| heparin [HP-HWM] | more potent than HP and DS; also recorded: more effective than heparin with lower molecular weight | – | – | – | – | – | – | – | – | – | – | – | – |
| heparin [HP] | more effective at the dose tested than desulphated HP | did not affect the mice adversely | significantly fewer actin tails were formed | 15 | abolished virus infectivity | confirmed | did not reduce the infectivity | 55-61% | did not cause weight loss or illness | provided protection to a level equivalent to rabbit IgG generated against live infection | provided similar benefit | slightly less weight loss | reduction of level of virus in lungs [8]: about 10 fold; reduction of levels of virus in the brain [8]: > 100 fold; virus titres, HP in absence of anti-VACV Ab [8]: titres were lower than in the absence of HP; binding of virus [9]: neither binding nor entry of virus was affected significantly; entry of virus (intracellular cores) [9]: neither binding nor entry of virus was affected significantly; surface of virions associated with EEV membrane [10]: 46.4%; titre of virus released into the culture medium [11]: no significant difference; titre of virus that remained cell-associated [11]: no significant difference; actin tails seen by EM [12]: actin tails were rarely seen; outer membrane of CEV bound to the cell surface [12]: disrupted the outer membrane of CEV |
